Measurements reported in US20050130116A1, “Stable expression of polymorphous forms of human cytochrome p450 2d6” (priority 2000, published 2005).
Like-named read-outs stand apart in the source and are kept apart here.

How the values were obtained:
hCYP2D6 [1] = target: T1, hCYP2D6 (Homo sapiens, UniProt P10635); test: Effect of DMSO on tamoxifen-4-hydroxylase activity; type: biochemical; parameters: expressed in transfected cells; host or cells: V79MZ Chinese hamster fibroblasts (V79MZh2D6*1, DSM ACC2446; also V79MZh2D6*1-H and -S)
V79MZh2D6 cells [2] = tested on: V79MZh2D6 cells
V79MZh2D6 cells [3] = test: Supplementation of culture medium with heme sources (cytotoxic limit, bufuralol hydroxylase activity); settings: up to the cytotoxic limit
hCYP2D6 [4] = target: T1, hCYP2D6
human liver microsomes = settings: cited from earlier work; for contribution to the 4-hydroxylation of tamoxifen: human liver microsomes (Crewe et al., 1997); for tamoxifen-4-hydroxylation activity: 1 μM tamoxifen (Crewe et al., 1997)
hCYP2D6 1 [5] = settings: cited from earlier work; for Km: racemic bufuralol
hCYP2D6*1 and hCYPOR = hCYP2D6*1 and hCYPOR (Homo sapiens, UniProt P10635); settings: V79MZh2D6*1-hOR homogenate; 200 μM racemic bufuralol
Procedure: 30 μg of Sca I linearized pSV450h2D6*1 DNA and 1 μg of Sca I linearized pRc/RSV-hCYPOR DNA were transfected. […] As in the case of transfection samples T1-T5, the expression vector pSV450h2D6*1 was employed in a 30fold excess over resistance vector pRc/RSV-hCYPOR.

hCYP2D6 1 [6] = target: T2, hCYP2D6 1 (Homo sapiens, UniProt P10635); settings: V79MZh2D6*1 homogenate, NADPH (Bogni, 1999); racemic bufuralol; cited from earlier work
hCYP2D6 1 [7] = target: T2, hCYP2D6 1; settings: cited from earlier work
hCYP2D6 9 = hCYP2D6 9 (Homo sapiens, UniProt P10635, DEL281-281); test: Effect of quinidine on the stability of hCYP2D6 (CO difference spectra); settings: hCYP2D6 9 (V79MZh2D6*9); quinidine added to the culture medium during cultivation
Procedure: For the preparation of a cell homogenate, the V79MZ cells were cultured in at least three 250 ml tissue culture flasks up to a confluence of 80-100%. […] The medium was discarded, followed by rinsing twice with 5 ml icecold buffer (100 mM potassium phosphate, pH 7.4). The cells were loosened from the dish by means of a rubber scraper into 4 ml of icecold buffer, combined and pelleted by centrifugation for 10 min at 1500×g and 4° C. […] All aliquots were shock frozen in liquid nitrogen to disrupt the cells and afterwards stored at −80° C. until use.
The supernatant was introduced into a 2 ml glas-on-glas homogenizator, reduced by adding several crystals of sodium dithionite (Sigma, Deisenhofen) followed by 15 strokes, and split up between two quartz cuvettes.

[8] = AHH-1 TK+/− (h2D6Metv2) microsomes, NADPH (Penman et al., 1993)
[9] = Hep G2 cell lysate, CuOOH (Tyndale et al., 1991a)
[10] = S. cerevisiae W(R) microsomes, Yred/NADPH (Oscarson et al., 1997)
[11] = Sf9 insect cells membranes, CYPOR/NADPH (Evert et al., 1997)
[12] = Sf9 insect cells membranes, CYPOR/NADPH (Patten et al., 1996)
[13] = E. coli, purified, CYPOR/NADPH (Gillam et al., 1995)
[14] = Sf9 insect cells cell extract, CYPOR/NADPH (Paine et al., 1996)
[15] = AHH-1 TK+/− (h2D6Val/OR) microsomes, CYPOR/NADPH (Gentest, produkt # M117r)

T2 sequence (P10635 whole entry): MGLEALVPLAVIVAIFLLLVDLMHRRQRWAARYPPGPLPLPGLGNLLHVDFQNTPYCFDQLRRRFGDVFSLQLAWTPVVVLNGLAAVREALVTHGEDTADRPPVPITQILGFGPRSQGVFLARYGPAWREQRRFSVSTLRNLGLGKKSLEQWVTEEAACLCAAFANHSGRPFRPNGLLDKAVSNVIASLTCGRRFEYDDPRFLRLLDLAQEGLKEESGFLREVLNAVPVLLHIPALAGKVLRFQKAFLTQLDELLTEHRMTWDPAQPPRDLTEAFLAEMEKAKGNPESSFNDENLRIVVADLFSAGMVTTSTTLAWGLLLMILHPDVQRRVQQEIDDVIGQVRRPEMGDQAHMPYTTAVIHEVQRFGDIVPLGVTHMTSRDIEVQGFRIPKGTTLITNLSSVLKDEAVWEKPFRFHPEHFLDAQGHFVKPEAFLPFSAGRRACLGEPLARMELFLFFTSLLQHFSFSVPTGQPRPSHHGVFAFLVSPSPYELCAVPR
T1 sequence (P10635 whole entry): as above
Chain of hCYP2D6 9 (P10635 with tags, fused parts or gaps DEL281-281): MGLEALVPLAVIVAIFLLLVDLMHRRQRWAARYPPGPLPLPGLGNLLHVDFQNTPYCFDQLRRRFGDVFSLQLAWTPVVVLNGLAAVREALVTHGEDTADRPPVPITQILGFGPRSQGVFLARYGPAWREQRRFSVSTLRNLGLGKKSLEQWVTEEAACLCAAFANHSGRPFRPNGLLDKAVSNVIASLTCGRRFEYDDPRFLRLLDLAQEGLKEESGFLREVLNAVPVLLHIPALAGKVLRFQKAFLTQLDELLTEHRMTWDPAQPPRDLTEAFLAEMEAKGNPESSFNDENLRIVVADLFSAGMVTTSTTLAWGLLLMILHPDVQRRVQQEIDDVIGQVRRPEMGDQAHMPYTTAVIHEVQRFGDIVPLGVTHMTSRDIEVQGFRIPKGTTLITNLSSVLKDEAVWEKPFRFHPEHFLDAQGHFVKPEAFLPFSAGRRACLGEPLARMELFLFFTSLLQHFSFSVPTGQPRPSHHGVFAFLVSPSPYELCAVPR

Q: With `C[S+](C)[O-]` [DMSO, dimethylsulfoxide] as the molecule, how does the “tamoxifen-4-hydroxylase activity relative to that obtained at […] DMSO” value (hCYP2D6 [1]; 10% DMSO) read?
A: about 20%

Q: What about the “effect on tamoxifen-4-hydroxylase activity” value (hCYP2D6 [1]; up to a DMSO concentration of […]) of the same molecule?
A: only sligthly affected

Q: For hemin chloride, which cytotoxic limit (V79MZh2D6 cells [2]) is on record?
A: 10 µM

Q: And the “bufuralol hydroxylase activity per mg total protein in the cell homogenate after supplementation” value (V79MZh2D6 cells [3])?
A: no increased bufuralol hydroxylase activity

Q: Which “metabolism by V79MZh2D6 homogenate (hCYP2D6-catalyzed hydroxylation)” value (“metabolism by V79MZh2D6 homogenate” for short) (hCYP2D6 [4]) does the source give for `CC/C(=C(\c1ccccc1)c1ccc(OCCN)cc1)c1ccccc1` [Z-N-didemethyl-tamoxifen] here?
A: negligible

Q: Which “metabolism by V79MZh2D6 homogenate” value (hCYP2D6 [4]) does the source give for `CC/C(=C(\c1ccccc1)c1ccc(OCC[N+](C)(C)[O-])cc1)c1ccccc1` [Z-Tamoxifen-N-oxide] here?
A: only to a minor extent

Q: With `CC/C(=C(\c1ccccc1)c1ccc(OCCN(C)C)cc1)c1ccccc1` [tamoxifen] as the molecule, how does the “contribution to the 4-hydroxylation of tamoxifen” value (shortened to “contribution”) (human liver microsomes; hCYP2C9*1) read?
A: +

Q: And the “contribution” value (human liver microsomes; hCYP2D6*1)?
A: +

Q: What about the “contribution” value (human liver microsomes; hCYP2E1) of the same molecule?
A: −

Q: What about the “contribution” value (human liver microsomes; hCYP3A4) of the same molecule?
A: +

Q: And the tamoxifen-4-hydroxylation activity (human liver microsomes; human liver microsomes of extensive metabolizers)?
A: 1.1-3 pmol/min/mg protein

Q: What about the tamoxifen-4-hydroxylation activity (human liver microsomes; human liver microsomes of poor metabolizers) of the same molecule?
A: 0.7-0.8 pmol/min/mg protein

Q: Which “Vmax (+)” value (hCYP2D6 1 [5]; AHH-1 TK+/− (2D6Met/Hol) cell lysate, NADPH (Crespi et al., 1991)) does the source give for `CCc1cccc2cc([C@H](O)CNC(C)(C)C)oc12` [(+)-bufuralol] here?
A: 68 ± 0 pmol/mg/min

Q: What about the “Vmax (+)” value (hCYP2D6 1 [5]; AHH-1 TK+/− (h2D6Metv2) cell lysate, NADPH (Penman et al., 1993)) of the same molecule?
A: 126 ± 1 pmol/mg/min

Q: And the “Reaction rate (+)” value (hCYP2D6 1 [5]; [8])?
A: 4.5 min⁻¹

Q: What about the “Vmax (+)” value (hCYP2D6 1 [5]; [8]) of the same molecule?
A: 723 ± 35 pmol/mg/min

Q: And the “Vmax (+)” value (hCYP2D6 1 [5]; COS-1 cells homogenate, CYPOR/NADPH (Johansson et al., 1994))?
A: 3.4 pmol/mg/min

Q: What about the “Vmax (+)” value (hCYP2D6 1 [5]; COS-1 cells homogenate, NADPH (Kagimoto et al., 1990)) of the same molecule?
A: 20 to 50 pmol/mg/min

Q: And the “Reaction rate (+)” value (hCYP2D6 1 [5]; [9])?
A: 2.3 min⁻¹

Q: What about the “Vmax (+)” value (hCYP2D6 1 [5]; [9]) of the same molecule?
A: 34.1 pmol/mg/min

Q: What about the “Reaction rate (+)” value (hCYP2D6 1 [5]; [10]) of the same molecule?
A: 10 min⁻¹

Q: What about the “Vmax (+)” value (hCYP2D6 1 [5]; [10]) of the same molecule?
A: 116 pmol/mg/min

Q: And the “Reaction rate (+)” value (hCYP2D6 1 [5]; [11])?
A: 26.2 ± 0.4 min⁻¹

Q: What about the “Vmax (+)” value (hCYP2D6 1 [5]; [11]) of the same molecule?
A: 17500 ± 2700 pmol/mg/min

Q: And the “Reaction rate (+)” value (hCYP2D6 1 [5]; [12])?
A: 0.96 min⁻¹

Q: And the “Vmax (+)” value (hCYP2D6 1 [5]; [12])?
A: 500 to 1000 pmol/mg/min

Q: For `CC/C(=C(\c1ccccc1)c1ccc(OCCNC)cc1)c1ccccc1` [Z-N-demethyl-tamoxifen], which “metabolism by V79MZh2D6 homogenate” value (hCYP2D6 [4]) is on record?
A: proceeded well

Q: Which bufuralol hydroxylase activity (hCYP2D6*1 and hCYPOR) does the source give for `CCc1cccc2cc(C(O)CNC(C)(C)C)oc12` (racemic) [racemic bufuralol] here?
A: 143 ± 6 pmol/mg/min

Q: And the “Vmax (+/−)” value (hCYP2D6 1 [6])?
A: 153 ± 26 pmol/mg/min

Q: What about the “Reaction rate (+/−)” value (hCYP2D6 1 [5]; [13]) of the same molecule?
A: 1.2 ± 0.1 min⁻¹

Q: And the Km (hCYP2D6 1 [5]; [13])?
A: 39 ± 5 µM

Q: What about the “Reaction rate (+/−)” value (hCYP2D6 1 [5]; [14]) of the same molecule?
A: 12.23 min⁻¹

Q: And the “Vmax (+/−)” value (hCYP2D6 1 [5]; [14])?
A: 370 pmol/mg/min

Q: And the Km (hCYP2D6 1 [5]; [14])?
A: 4.7 µM

Q: And the “Reaction rate (+/−)” value (hCYP2D6 1 [7]; [15])?
A: 10.38 min⁻¹

Q: What about the “Vmax (+/−)” value (hCYP2D6 1 [7]; [15]) of the same molecule?
A: 550 pmol/mg/min

Q: And the “Reaction rate (+/−)” value (hCYP2D6 1 [7]; purified from human liver, CYPOR/NADPH (Distlerath et al., 1985))?
A: 4.4 to 6.4 min⁻¹

Q: Which “increase in the amount of cytochrome P450” value (hCYP2D6 9) does the source give for `C=C[C@H]1C[N@@]2CC[C@H]1C[C@@H]2[C@@H](O)c1ccnc2ccc(OC)cc12` [quinidine] here?
A: 4-6 fold
